Where two headings read alike, the source gives them in different places. Starred links: 1 amine or outer side, 2 acyl side, 3 side chain; linkers in the order of their positions; H or OH if unused. Positions of bridges follow the written chain, without caps; N, C: chain ends. Non-standard residues stand in square brackets, D forms with d. Residues, ends and D or L forms follow the SMILES beside them. Chains are numbered I, II in the order given. Actinocin(9to1) = Cc1c2oc3c(C)ccc(C(=O)[*:1])c3nc-2c(C(=O)[*:2])c(N)c1=O; NMeV = CN[C@H](C(=O)O)C(C)C; Sar = CNCC(=O)O
Experiments:
[1] = test system: nascent RNA synthesis in HCT116 p53−/− cells; assay: Nascent RNA detection in cells by 5EU incorporation (click labelling, confocal microscopy); format: cell-based, human; settings: 30 min treatment then 1 h 5EU
Description: Cells were grown until 50–60% confluent on sterilized glass slides (Superfrost® Plus microscope slides, Menzel-Glaser) and then were treated with compounds or vehicle (as indicated) for 30 min, followed by the addition of 5EU (5-Ethynyl-uridine, 1 mM final concentration) and further incubation for 1 h. The following concentrations were used: Actinomycin D (ActD): 3 µM; ethidium bromide (EB): 40 µM; proflavine (Pro): 2 µM; CX5461: 5 µM.
Cells were fixed with 3.7% paraformaldehyde and permeabilized with 0.5% Triton X-100 in PBS. Nascent RNA was fluorescently labelled using Click-IT® Cell Reaction Buffer Kit (Invitrogen, Waltham, MA, USA) supplemented with Cy5 Azide (Sigma Aldrich) according to manufacturer’s instruction. Nuclei were stained with Hoechst 33342 and images were acquired with a Leica TCS SP5 confocal microscope equipped with an x63 oil-filled objective. Leica Application Suite X (LAS X) software was used for quantification of 5EU incorporation. Box-and-whisker plots of quantification of 5EU incorporation were obtained with Excel. They show the median, the 25% and 75% quantiles, as well as outliers.
Although we see no significant effect of the intercalators and grove-binders on specific Pol-II transcription in vitro we performed experiments aiming to explore effect of these compounds on general level of Pol-II/III transcription in cells. To this end we used two approaches. Firstly, we measure the level of nascent RNA synthesis in […] p53^−/− cells treated with proflavine, ethidium bromide, CX-5461 (specific inhibitor of Pol-I transcription) at concentrations sufficient to inhibit about 90% of Pol-I transcription as shown in Figure 5A. As a control we used high concentration of ActD (3µM) that inhibits activity of all […] polymerases. Cells were treated with the selected compounds or a vehicle for 30 min and then 5EU (5-Ethynyl-uridine) was added and incubation was continued for another hour. During this time, 5EU is incorporated into any newly synthesized RNA, and the level of incorporation can later be assessed using a combination of “click” approach and confocal microscopy.

[2] = test system: Pol II/III transcription in HCT116 p53−/− cells; assay: Pol-II (18 house-keeping genes) and Pol-III transcripts by qPCR in p53 null cells; format: cell-based, human; settings: 30 min
Description: (§1) Cells were grown until 70% confluent and then treated with compounds for 30 min. The following concentrations were used: ActD: AD1–3 nM; AD2–3 µM; Camptothecin (CPT): 8 µM; ethidium bromide (EB): 40 µM; crystal violet (CV): 20 µM; Pro: 2 µM; CX5461: 5 µM. RNA was purified using the RNeasy purification kit (Qiagen) following the manufacturer’s instructions and the RNA concentration was determined spectroscopically. A total 1 µg of RNA was converted to cDNA using the High Capacity RNA-to-cDNA reverse transcriptase kit (Applied Biosystems, Waltham, MA, USA). Then 47/45S pre-rRNA levels were analyzed on the LighCycler 480 thermocycler (Roche) using primers and conditions described previously.
(§2) Pol-II and Pol-III transcripts were analyzed as described previously. All signals were normalized to 18S rRNA level. The standard deviation was calculated from three independent experiments.
(§3) As a complimentary approach we also measured the effect of intercalators and grove binders on transcription by Pol-II and Pol-III by determining relative expression levels of 18 house-keeping genes (the Human Housekeeper reference gene plate, Roche) and of three Pol-III dependent genes in intercalator treated and untreated HCT116 p53^−/− and p53^+/+ cells as described previously.

[3] = test system: Pol-II transcription in HCT116 p53+/+ cells; assay: Pol-II transcripts (18 house-keeping genes) by qPCR in cells expressing wt p53; format: cell-based, human; settings: cells expressing wt p53, 30 min; concentrations as Figure S2
Description: as §1, §2, §3
Figure S2. […] Total RNA was isolated, reverse transcribed and analysed by qPCR. […]

[4] = test system: Pol-I transcription (rRNA synthesis) in HCT116 p53−/− cells; assay: IC50 of Pol-I transcription (rRNA synthesis) in cells; format: cell-based, human; settings: Homo sapiens
Description: as §1
Next, we determined IC50 concentrations for EtBr, Pro, CPT, DAPI and CV in cells by measuring the level of Pol-I transcription at various compound concentrations (Table 2). For this assay we used the HCT116 p53^−/− cell line to avoid any effect of p53 dependent repression of Pol-I transcription.

[5] = test system: Pol-I specific transcription; assay: Pol-I specific transcription in vitro with or without Top 1 (purified GTFs or HeLa NE; immobilized linear or supercoiled template); format: biochemical, human; settings: GTFs lacking Top 1 + immobilized linear template, HeLa NE + supercoiled plasmid
Description: Specific Pol I driven transcription reactions were performed as described using 200 ng of supercoiled plasmid DNA or immobilized rDNA promoter. Reactions were supplemented with 1 µL HeLa nuclear extract or with highly purified general transcription factors (GTF: 2 µL SL1, 2.5 µL Pol-I and 0.1 µL UBF). S1 nuclease protection was performed as described with a 60 bp ^32P-5′-end labelled oligonucleotide containing a sequence identical to the region between −20 and +40 of the template strand in the human rRNA gene promoter. […] The standard deviations were calculated from three independent experiments.

[6] = test system: Pol-I specific transcription (human rRNA gene promoter); assay: In vitro Pol-I specific (promoter-driven) transcription assay, HeLa nuclear extract, S1 nuclease protection; format: biochemical; settings: 1 µL HeLa nuclear extract, 100 ng plasmid DNA containing rRNA promoter, triplicates
Description: […] Reactions were supplemented with 1 µL HeLa nuclear extract or with highly purified general transcription factors (GTF: 2 µL SL1, 2.5 µL Pol-I and 0.1 µL UBF). S1 nuclease protection was performed as described with a 60 bp ^32P-5′-end labelled oligonucleotide containing a sequence identical to the region between −20 and +40 of the template strand in the human rRNA gene promoter. […] The standard deviations were calculated from three independent experiments.
We tested a range of DNA intercalators and minor/major groove binders for the potential to inhibit Pol-I and determined IC50 for each drug using an in vitro Pol-I specific transcription assay. This assay primarily measures the efficiency of the initial stages of transcription which include preinitiation complex (PIC) formation, first phosphodiester bond synthesis and promoter clearance (see reviews and for a detailed description of the Pol-I transcription cycle). The reactions were supplemented with supercoiled rDNA template and HeLa nuclear extract (NE) and the level of specific transcript was determined by S1 nuclease protection assay as described.

[7] = test system: Pol-I transcription (47/45S pre-rRNA) in HCT116 p53−/− cells; assay: 47/45S pre-rRNA level in cells by qPCR; format: cell-based, human; settings: 30 min, CPT 8 µM, EB 40 µM, CV 20 µM, Pro 2 µM, CX5461 5 µM (Figure 5A)
Description: as §1, §2

[8] = test system: UBF occupancy at the rDNA, HCT116 p53−/− cells; assay: ChIP of the rDNA repeat: UBF occupancy; format: cell-based, human; settings: 30 min at IC50 in cells: EB 9.16 µM; CV 5 µM; Pro 0.5 µM
Description: ChIP assays were carried out as described previously. In brief, cells were grown until 70% confluent, then treated with compounds for 30 min. The following concentrations were used: ethidium bromide (EB)—9.16 µM; crystal violet (CV)—5 µM; proflavine (Pro)—0.5 µM. Cells were cross-linked with formaldehyde (final concentration 1%) for 10 min, and the cross-linking stopped by the addition of glycine (final concentration 0.125 M) for 5 min. Cross-linked chromatin was sheared using a Biorupter (Diagenode, Liege, Belgium) until 300-base pair average size. Immunoprecipitation was carried out using chromatin isolated from 1 × 10^6 cells, antibodies listed in Supplementary Table S2 and 30 μL of Protein A/Protein G magnetic beads (Invitrogen). Purified immunoprecipitated DNA was analyzed by two tetraplex quantitative PCR panels designed for eight regions of the rDNA repeat; promoter, intergenic spacer 4 (IGS4), 18S, 5.8S, 28S, terminator, IGS1, and 5′externally transcribed spacer (ETS). […] Signal were quantified using internal standards and specific signals were calculated as a difference between the signals from the specific antibody and from the negative control (an appropriate IgG). Results were expressed as the amount relative to input chromatin and normalized to control IgG levels, with the standard deviations calculated from three independent ChIP experiments. […]

Cc1c2oc3c(C)ccc(C(=O)N[C@@H]4C(=O)N[C@H](C(C)C)C(=O)N5CCC[C@H]5C(=O)N(C)CC(=O)N(C)[C@@H](C(C)C)C(=O)O[C@@H]4C)c3nc-2c(C(=O)N[C@@H]2C(=O)N[C@H](C(C)C)C(=O)N3CCC[C@H]3C(=O)N(C)CC(=O)N(C)[C@@H](C(C)C)C(=O)O[C@@H]2C)c(N)c1=O [ActD, Actinomycin D] (I: T[dV]P[Sar][NMeV] / II: T[dV]P[Sar][NMeV]; ester I:1-I:C, II:1-II:C; linker I:N-II:N via Actinocin(9to1))
5EU incorporation (RNA synthesis) ([1]; 3 μM): almost completely abolished
effect on Pol II/III transcription ([2]; AD1 3 nM ActD, CPT 8 µM, EB 40 µM, CV 20 µM, Pro 2 µM): did not repress
transcription of Pol-II targets ([2]; high concentration of ActD (AD2, 3 µM)): causes repression of transcription of all Pol-II targets
effect on mRNA levels of the genes tested [3]: quite significant

CC[C@@]1(O)C(=O)OCc2c1cc1n(c2=O)Cc2cc3ccccc3nc2-1 [Camptothecin]
IC50 ([4]; HCT-116, read-out: IC50 (rRNA Synthesis)): 1990 nM
effect on Pol-I specific transcription [5]: represses Pol-I specific transcription under all conditions

Nc1ccc2cc3ccc(N)cc3nc2c1 [Proflavine, proflavine]
IC50 [6]: 350 nM
IC50 ([4]; HCT-116, p53 null HCT116 cells, triplicates, total RNA analyzed by S1 nuclease protection assay, read-out: IC50 (rRNA Synthesis)): 476 nM
distribution (nucleolar localization) of nascent RNAs ([1]; EB 40 µM, Pro 2 µM, CX5461 5 µM): affected the distribution of nascent RNAs
inhibition of all transcription (5EU incorporation), effect of ActD set to be 100% inhibition ([1]; HCT116 p53−/− cells, EB 40 µM, Pro 2 µM, CX5461 5 µM): 48%
inhibition of Pol-I transcription [7]: about 90%
UBF occupancy [8]: affected

— article PMC8466728, “DNA Intercalators Inhibit Eukaryotic Ribosomal RNA Synthesis by Impairing the Initiation of Transcription” (Genes, 2021)
